Earlier results in patent US20170014414A1, “PHARMACEUTICAL COMPOSITION” (ratiopharm GmbH, priority 2014, published 2017).

Conditions: teaching of WO 2012/088033

SMILES | solubility compared with trametinib DMSO solvate | stability of the solvate on exposure to moisture (during the formulation process) | photostability
CC(=O)Nc1cccc(-n2c(=O)n(C3CC3)c(=O)c3c(Nc4ccc(I)cc4F)n(C)c(=O)c(C)c32)c1 [trametinib in its non-solvated form, N-{3-[3-cyclopropyl-5-(2-fluoro-4-iodophenylamino)-6,8-dimethyl-2,4,7-trioxo-3,4,6,7-tetrahydro-2H-pyrido[4,3-d]pyrimidin-1-yl]phenyl}acetamide] | much less soluble than trametinib DMSO solvate | – | –
CC(=O)Nc1cccc(-n2c(=O)n(C3CC3)c(=O)c3c(Nc4ccc(I)cc4F)n(C)c(=O)c(C)c32)c1.C[S+](C)[O-] [trametinib DMSO solvate] | – | revert to an insoluble desolvated form when exposed to moisture | can suffer from photo-instability
